In patent US20260042764A1, “COMPOSITIONS AND METHODS FOR INHIBITION OF KRAS” (TheRas, Inc., priority 2022, published 2026):

Experiments:
HPAC cells (KRAS G12D) = assay: 3D Cell viability assay in HPAC cells (Biological Example 6); format: cell-based; conditions: Homo sapiens, HPAC, 72 h, HPAC (KRAS G12D) spheroids
Description: (§1) Biological Example 6: 3D Cell viability assay in AsPC-1, SW1900, HPAC, Capan-2, RKN, H358, HCT116, KP-2, H1573, A549, MKN1, and HT1080 cells
(§2) The inhibition of cellular viability as a result of test compound treatment in a spheroid assay was measured using the CellTiter-Glow 3D Cell Viability Assay (Promega).
(§3) On Day 1, 1000 cells per well were seeded in 150 μL of complete growth media supplemented with 10% fetal bovine serum (FBS) and incubated at 37° C., in the presence of 5% CO2 in 96-well ultra-low attachment microplates (Corning) for 48 hours undisturbed to allow spheroids to form.
(§4) Following spheroid formation, cells were treated with compounds diluted in DMSO at 0.25% final DMSO concentration. Compounds were dosed in a 9-point concentration curve with three-fold dilution between concentrations. Cells were incubated in the presence of compound for 72 hours at 37° C., in the presence of 5% CO2.
(§5) Following this incubation period, the kit-provided CTG reagent was allowed to equilibrate for 30 minutes at room temperature, 150 μL of equilibrated CTG reagent was added to each well, and the plate was sealed before shaking at 250 rpm for 10 minutes at room temperature to lyse the cells, 150 μL of lysate per well was transferred to a 96-well plate and luminescence was read on a CLARIOstar plate reader.
(§6) Data was imported into the Prism software package (Graphpad) and EC50 values were calculated using the log (inhibitor) vs, response—variable slope (Four parameters) model.

H358 cells (KRAS G12C) = assay: Cell-based pERK HTRF assay in H358 cells (Biological Example 5)
Description: (§7) Biological Example 5: Cell-based PERK HTRF assay in AsPC-1, SW1900, HPAC, Capan-2, RKN, H358, HCT116, KP-2, H1573, A549, MKN1, and HT1080 cells
(§8) The inhibition of ERK phosphorylation, as measured using the HTRF Advanced Phospho-ERK 1/2 (Thr202/Tyr204) Detection Assay kit (Perkin Elmer), was used to determine the effectiveness of test compounds in disrupting KRAS-driven protein/effector signaling in cells.
(§9) On day 1, cells were seeded into 96-well plates at 2.5×10^4 cells/well in 100 μL of complete growth media supplemented with 10% fetal bovine serum (FBS) and incubated at 37° C., in the presence of 5% CO2.
(§10) On day 2, cells were treated with compounds diluted in DMSO at 0.25% final DMSO concentration. Compounds were dosed in a 9-point concentration curve with three-fold dilution between concentrations. Cells were incubated in the presence of compound for two hours at 37° C. Following this treatment period, cells were harvested by aspirating the media, adding 40 μL of kit-supplied 1x lysis buffer per well, and shaking for 30 minutes at 250 rpm at room temperature.
(§11) Following cell lysis, samples were homogenized by pipetting up and down twenty times and 16 μL of cell lysate per well was transferred from the 96-well cell culture plate to two wells of a 384-well detection plate. A complete detection buffer was prepared by diluting D2 and Eu Cryptate antibodies 1:20 in kit-provided detection solution, 4 μL of complete detection buffer was then added to each well with lysate. Plates were incubated with gentle rocking for 24 hours at 4° C.
(§12) Following this incubation period, plates were centrifuged at 500×g for one minute and analyzed on a CLARIOstar plate reader. Data was imported into Microsoft Excel and the signal from the 665 nm channel was divided by the signal from the 620 nm channel. % pERK was calculated as: […]
(§13) Data was imported to the Prism software package (Graphpad) and EC50 values were calculated using the log (inhibitor) vs, response—variable slopc (Four parameters) model.

[1] = system: Capan-2 cells (KRAS G12V); assay: Cell-based pERK HTRF assay in Capan-2 cells (Biological Example 5)
Description: as §7, §8, §9, §10, §11, §12, §13

RKN cells (KRAS G12V) = assay: Cell-based pERK HTRF assay in RKN cells (Biological Example 5)
Description: as §7, §8, §9, §10, §11, §12, §13

[2] = system: Capan-2 cells (KRAS G12V); assay: 3D Cell viability assay in Capan-2 cells (Biological Example 6); format: cell-based; conditions: Capan-2 (KRAS G12V) spheroids, 72 hours
Description: as §1, §2, §3, §4, §5, §6

[3] = molecular target: T1, Avi-KRAS G12C (2-169) GTP/RAF1 RBD-3xFLAG (51-131) (Homo sapiens, UniProt P01116, G12C); assay: Raf1-KRAS G12C-GTP disruption HTRF assay (Biological Example 3); format: binding; conditions: KRAS G12C, GTP-loaded
T1 construct: Avi-KRAS G12C (2-169)
T1 sequence (P01116 2-169 isoform P01116-2 G12C): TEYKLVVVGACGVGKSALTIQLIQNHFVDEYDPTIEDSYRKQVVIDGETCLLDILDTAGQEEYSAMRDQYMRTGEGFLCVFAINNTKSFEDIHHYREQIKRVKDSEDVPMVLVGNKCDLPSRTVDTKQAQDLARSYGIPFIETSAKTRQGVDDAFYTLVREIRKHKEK
Outline: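 Compounds were titrated 10-point, 3-fold from 30 μM against preformed KRAS-GTP:RAF1 RBD (51-131) complexes at 50 nM, using KRAS 2-169 as WT, G12C, G12D or G12V. After 1 h at room temperature in Tris pH 7.5 buffer with MgCl2 and 10% DMSO, time-resolved fluorescence was read. Results are percent activity versus DMSO.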

[4] = Homo sapiens, NCI-H358, H358 (KRAS G12C) cells
[5] = Homo sapiens, Capan-2, Capan-2 (KRAS G12V) cells

| IC50 (H358 cells (KRAS G12C); [4]) | IC50 [1, 5] | IC50 (RKN cells (KRAS G12V)) | IC50 (H358 cells (KRAS G12C); H358 (KRAS G12C) cells) | IC50 ([1]; Capan-2 (KRAS G12V) cells) | IC50 [3] | SMILES | IC50 (HPAC cells (KRAS G12D)) | IC50 ([2]; Homo sapiens) | IC50 [2] |
| --- | --- | --- | --- | --- | --- | --- | --- | --- | --- |
| ≤ 100 nM | ≤ 100 nM |  |  |  |  | N#Cc1c(N)sc2c(F)ccc(-c3c(C(F)(F)F)cc4c(N5CCCOCC5)nc(OC[C@@]56CCCN5C[C@H](F)C6)nc4c3F)c12 [Compound 232] | > 1000 nM |  |  |
| ≤ 100 nM |  |  |  |  |  | C[C@@H]1[C@H](N(C)c2nc(OC[C@@]34CCCN3C[C@H](F)C4)nc3c(F)c(-c4ccc(F)c5sc(N)c(C#N)c45)c(C(F)(F)F)cc23)CCN1C(=O)C1CC1 [Compound 258] | 100 to 1000 nM |  |  |
| ≤ 100 nM | ≤ 100 nM | ≤ 100 nM |  |  |  | CCC(=O)N1CC[C@@H](N(C)c2nc(OC[C@@]34CCCN3C[C@H](F)C4)nc3c(F)c(-c4ccc(F)c5sc(N)c(C#N)c45)c(C(F)(F)F)cc23)[C@H]1C [Compound 260] | 100 to 1000 nM | ≤ 100 nM |  |
| ≤ 100 nM | ≤ 100 nM |  |  |  |  | CCN(c1nc(OC[C@@]23CCCN2C[C@H](F)C3)nc2c(F)c(-c3ccc(F)c4sc(N)c(C#N)c34)c(Cl)cc12)[C@@H]1CCN(C(C)=O)[C@@H]1C [Compound 323] | ≤ 100 nM | ≤ 100 nM |  |
|  | ≤ 100 nM |  |  |  |  | N#Cc1c(N)sc2c(F)ccc(-c3c(C(F)(F)F)cc4c(N5CC6CC5CO6)nc(OC[C@@]56CCCN5C[C@H](F)C6)nc4c3F)c12 (stereo partly drawn) [Compound 147] | 100 to 1000 nM |  |  |
| ≤ 100 nM | ≤ 100 nM |  |  |  |  | N#Cc1c(N)sc2c(F)ccc(-c3c(C(F)(F)F)cc4c(N5CCC[C@@H](O)C5)nc(OC[C@@]56CCCN5C[C@H](F)C6)nc4c3F)c12 [Compound 234] | > 1000 nM |  |  |
| ≤ 100 nM | ≤ 100 nM |  |  |  |  | CCN(c1nc(OC[C@@]23CCCN2C[C@H](F)C3)nc2c(F)c(-c3ccc(F)c4sc(N)c(C#N)c34)c(Cl)cc12)[C@@H]1CCN(C(=O)C2CC2)[C@@H]1C [Compound 337] | 100 to 1000 nM | 100 to 1000 nM |  |
| ≤ 100 nM | ≤ 100 nM | ≤ 100 nM |  |  |  | CCN(c1nc(OC[C@@]23CCCN2C[C@H](F)C3)nc2c(F)c(-c3ccc(F)c4sc(N)c(C#N)c34)c(C(F)(F)F)cc12)[C@H]1CCN(C(C)=O)C1 [Compound 262] | ≤ 100 nM | ≤ 100 nM |  |
| ≤ 100 nM | ≤ 100 nM | ≤ 100 nM |  |  |  | CCN(c1nc(OC[C@@]23CCCN2C[C@H](F)C3)nc2c(F)c(-c3ccc(F)c4sc(N)c(C#N)c34)c(C(F)(F)F)cc12)[C@H]1C[C@H](C)N(C(=O)[C@@H]2CC2(F)F)C1 (atropisomer, axis not shown) [Compound 751] | ≤ 100 nM | ≤ 100 nM |  |
| ≤ 100 nM | ≤ 100 nM | ≤ 100 nM |  |  |  | CCN(c1nc(OC[C@@]23CCCN2C[C@H](F)C3)nc2c(F)c(-c3ccc(F)c4sc(N)c(C#N)c34)c(C(F)(F)F)cc12)[C@H]1C[C@@H](C)N(C(=O)C2COC2)C1 (atropisomer, axis not shown) [Compound 586] | ≤ 100 nM | ≤ 100 nM |  |
|  |  | ≤ 100 nM | ≤ 100 nM | ≤ 100 nM |  | CCN(c1nc(OCC23CCCN2CC(F)C3)nc2c(F)c(-c3ccc(F)c4sc(N)c(C#N)c34)c(C(F)(F)F)cc12)C1CC(C)N(C(=O)N2CC(F)C2)C1 (stereo not drawn) [Compound 759] |  |  | ≤ 100 nM |
| ≤ 100 nM | ≤ 100 nM | ≤ 100 nM |  |  |  | CCN(c1nc(OC[C@@]23CCCN2C[C@H](F)C3)nc2c(F)c(-c3ccc(F)c4sc(N)c(C#N)c34)c(C(F)(F)F)cc12)[C@H]1CCN(C(=O)C2CC2)[C@@H]1C (atropisomer, axis not shown) [Compound 579] | 100 to 1000 nM | ≤ 100 nM |  |
| 100 to 1000 nM | 100 to 1000 nM | 100 to 1000 nM |  |  |  | C[C@@H]1[C@H](N(C)c2nc(OC[C@@]34CCCN3C[C@H](F)C4)nc3c(F)c(-c4ccc(F)c5sc(N)c(C#N)c45)c(C(F)(F)F)cc23)CC(=O)N1C [Compound 440] | 100 to 1000 nM | 100 to 1000 nM |  |
| ≤ 100 nM | ≤ 100 nM |  |  |  |  | CC(=O)N1CC[C@@H](N(C)c2nc(OC[C@@]34CCCN3C[C@H](F)C4)nc3c(F)c(-c4ccc(F)c5sc(N)c(C#N)c45)c(C(F)(F)F)cc23)[C@H]1C (single isomer, unassigned) [Compound 193] | 100 to 1000 nM | ≤ 100 nM |  |
| ≤ 100 nM | ≤ 100 nM | ≤ 100 nM |  |  | 100 to 1000 nM | CCN(c1nc(OC[C@@]23CCCN2C[C@H](F)C3)nc2c(F)c(-c3ccc(F)c4sc(N)c(C#N)c34)c(C(F)(F)F)cc12)[C@H]1C[C@H](COC)N(C(=O)C2CC2)C1 (atropisomer, axis not shown) [Compound 696] |  | ≤ 100 nM |  |
| ≤ 100 nM | ≤ 100 nM |  |  |  |  | CN(Cc1cccnc1N)c1nc(OC[C@@]23CCCN2C[C@H](F)C3)nc2c(F)c(-c3ccc(F)c4sc(N)c(C#N)c34)c(C(F)(F)F)cc12 [Compound 390] | 100 to 1000 nM | ≤ 100 nM |  |
| ≤ 100 nM | ≤ 100 nM |  |  |  |  | N#Cc1c(N)sc2c(F)ccc(-c3c(C(F)(F)F)cc4c(N5CCOCC5)nc(OC[C@@]56CCCN5C[C@H](F)C6)nc4c3F)c12 (single isomer, unassigned) [Compound 198] | 100 to 1000 nM | ≤ 100 nM |  |
| ≤ 100 nM | ≤ 100 nM |  |  |  |  | CCN(c1nc(OC[C@@]23CCCN2C[C@H](F)C3)nc2c(F)c(-c3ccc(F)c4sc(N)c(C#N)c34)c(C(F)(F)F)cc12)[C@H]1C[C@H](C)N(C(C)=O)C1 [Compound 463] | > 1000 nM | ≤ 100 nM |  |
| ≤ 100 nM | ≤ 100 nM | ≤ 100 nM |  |  | 100 to 1000 nM | CCN(c1nc(OC[C@@]23CCCN2C[C@H](F)C3)nc2c(F)c(-c3ccc(F)c4sc(N)c(C#N)c34)c(C(F)(F)F)cc12)[C@H]1C[C@H](C)N(C(=O)OC)C1 (atropisomer, axis not shown) [Compound 704] |  | ≤ 100 nM |  |
| ≤ 100 nM | ≤ 100 nM |  |  |  |  | CC(=O)N1CC[C@@H](N(C)c2nc(OC[C@@]34CCCN3C[C@H](F)C4)nc3c(F)c(-c4ccc(F)c5sc(N)c(C#N)c45)c(Cl)cc23)[C@H]1C [Compound 398] | 100 to 1000 nM | 100 to 1000 nM |  |

| SMILES | IC50 (H358 cells (KRAS G12C); [4]) | IC50 [1, 5] | IC50 (RKN cells (KRAS G12V)) | IC50 (H358 cells (KRAS G12C); H358 (KRAS G12C) cells) | IC50 ([1]; Capan-2 (KRAS G12V) cells) | IC50 [3] | IC50 (HPAC cells (KRAS G12D)) | IC50 ([2]; Homo sapiens) | IC50 [2] |
| --- | --- | --- | --- | --- | --- | --- | --- | --- | --- |
| N#Cc1c(N)sc2c(F)ccc(-c3c(C(F)(F)F)cc4c(N5CC6CC(C5)O6)nc(OC[C@@]56CCCN5C[C@H](F)C6)nc4c3F)c12 (single isomer, unassigned) [Compound 275] | ≤ 100 nM | ≤ 100 nM | ≤ 100 nM |  |  |  | > 1000 nM | ≤ 100 nM |  |
